Results from paper PMC10791743, “Selective CK1α degraders exert antiproliferative activity against a broad range of human cancer cell lines” (Nature Communications, 2024).
Values joined by “and” are separate entries in the source; they are usually repeats but may differ in a detail not shown here. Identical values can stand only once. “Also recorded” adds a separate entry of the source.

Tests used:
p21 = p21 immunoblotting in MOLM-13 cells; assay type: cell-based, human; conditions: for p21 quantified protein expression (western blot): 3 western blots
[1] = Plasma stability assay, mouse; assay type: in vitro ADME; conditions: for Calculated Concentration: 0h standards set to Actual Concentration 100, IS warfarin, replicates
Method: page 32: Aldrich, Saint Louis, MO) were diluted into 0.1 M potassium phosphate buffer (PBS, pH 7.4, KH2PO4, Cat. No: P284-500; K2HPO4, Cat. No: BP363-500, Fisher Scientific, Fair Lawn, NJ) and mixed well. 40 μL of this solution was transferred into the above compounds plates. For the time 0 plate, 3 fold (v:v) cold acetonitrile with warfarin (400 ng/mL) as the internal standard was added to […] and B in PBS, pH 7.4) and no incubation. For the other five time points’ plates, 10 μL NADPH regenerating agent mixer was added to each well to initiate the reaction, the plate was sealed and incubated at 37° C on an orbital shaker (100 rpm) for the required time, followed by quenching of the reaction by adding 3-fold volume of cold acetonitrile with internal standard to each well. The final concentration of each component applied in this reaction was liver microsome protein at 0.5 […] After quenching, all plates were securely sealed and thoroughly mixed at 600 rpm for 10 minutes. Subsequently, centrifugation was performed at 4000 rpm for 20 minutes. The resulting supernatants […] analysis using UPLC–MS/MS. The assessment of metabolic stability involved determining the half- life through a least-squares fit of multiple time points, employing first-order kinetics. Plasma stability assay5: The degradation of human or mouse plasma was assessed by monitoring the gradual reduction of the parent compound over specified time intervals (0, 3, 24, and 48 hours). Human and mouse plasma samples were sourced from GeneTex (Irvine, CA). Test compound stock solutions, prepared at 10 mM in DMSO, were dispensed into triplicate wells of a 96-well microplate using the Labcyte Echo 650 dispenser. For plates, excluding the time 0-hour plate, plasma was […] The plate was sealed, incubated at 37°C on an orbital shaker (100 rpm) for the required duration, and then quenched with cold acetonitrile, incorporating warfarin as the internal standard. In the case of the time 0-hour plate, cold acetonitrile with the internal standard was added to each well before introducing plasma, eliminating page 33: the need for further incubation. Following quenching, all plates were thoroughly mixed at 600 rpm for 10 minutes and centrifuged at 4000 rpm for 20 minutes. Supernatants were transferred to […] MS/MS analysis. Plasma stability was evaluated by determining the half-life through a least-squares fit of multiple time points based on first-order kinetics. Plasma protein binding assay: Test compound stock solutions were prepared at a concentration of 10 mM in DMSO. A Single-Use RED (Rapid Equilibrium Dialysis) device was acquired from Thermo Scientific (Cat. No: 99006, Rockford, IL). The sample preparation for plasma protein binding followed a modified version of Waters' method6. After thawing, plasma was centrifuged at 1000 rpm for 10 minutes to eliminate any particulates. Each compound was then prepared at a concentration of 10 µM in either human or mouse plasma. In the plasma protein binding assessment, 300 µL of spiked plasma solutions were introduced into the sample chamber (indicated by the red ring), while 550 µL of DPBS was added to the adjacent chamber. The plate was sealed and incubated at 37°C on an orbital shaker (100 rpm) for 4 hours. Post -incubation, 50 µL aliquots were withdrawn from each side of the insert and dispensed into a 96 -well storage plate. To create analytically identical sample matrices (matrix matching), an equivalent volume of blank plasma or DPBS was added to the necessary wells, followed by quenching w ith 3-fold (v:v) cold acetonitrile containing warfarin as the internal standard. Subsequently, the sealed plates were well -mixed at 600 rpm for 10 minutes and then centrifuged at 4000 rpm for 20 minutes. Supernatants were transferred to analytical […] Test compound concentrations were quantified in both the buffer and plasma chambers by determining peak areas relative to the internal standard. […]

[2] = Plasma protein binding assay (RED), mouse; assay type: in vitro ADME
Method: page 33: the need for further incubation. Following quenching, all plates were thoroughly mixed at 600 rpm for 10 minutes and centrifuged at 4000 rpm for 20 minutes. Supernatants were transferred to […] MS/MS analysis. Plasma stability was evaluated by determining the half-life through a least-squares fit of multiple time points based on first-order kinetics. Plasma protein binding assay: Test compound stock solutions were prepared at a concentration of 10 mM in DMSO. A Single-Use RED (Rapid Equilibrium Dialysis) device was acquired from Thermo Scientific (Cat. No: 99006, Rockford, IL). The sample preparation for plasma protein binding followed a modified version of Waters' method6. After thawing, plasma was centrifuged at 1000 rpm for 10 minutes to eliminate any particulates. Each compound was then prepared at a concentration of 10 µM in either human or mouse plasma. In the plasma protein binding assessment, 300 µL of spiked plasma solutions were introduced into the sample chamber (indicated by the red ring), while 550 µL of DPBS was added to the adjacent chamber. The plate was sealed and incubated at 37°C on an orbital shaker (100 rpm) for 4 hours. Post -incubation, 50 µL aliquots were withdrawn from each side of the insert and dispensed into a 96 -well storage plate. To create analytically identical sample matrices (matrix matching), an equivalent volume of blank plasma or DPBS was added to the necessary wells, followed by quenching w ith 3-fold (v:v) cold acetonitrile containing warfarin as the internal standard. Subsequently, the sealed plates were well -mixed at 600 rpm for 10 minutes and then centrifuged at 4000 rpm for 20 minutes. Supernatants were transferred to analytical […] Test compound concentrations were quantified in both the buffer and plasma chambers by determining peak areas relative to the internal standard. The percentage of the test compound bound to plasma was calculated using the following equation (4): %Free = (Concentration buffer chamber / concentration plasma chamber) x 100% and equation (5) %Bound = 100% - %Free.

[3] = time course 0-8 hrs, relative to no treatment
[4] = mouse plasma, regression of log concentration over time points 0, 3, 24, 48 h
[5] = mouse plasma, single replicates

SMILES: O=C1CCC(N2Cc3cc(Nc4noc5ccccc45)ccc3C2=O)C(=O)N1 (stereo not shown) [SJ3149]
- p21 induction, time course (p21; MOLM-13, 1 μM, 0-8 h): not present until 4 h; also recorded: does not occur until after 4 hours
- p21 quantified protein expression (western blot) (p21; time 1 hr, relative to no treatment): 0.8518 and 1.28 and 0.8338
- p21 quantified protein expression (western blot) (p21; time 2 hrs, relative to no treatment): 1.31 and 1.5551 and 1.213
- p21 quantified protein expression (western blot) (p21; time 4 hrs, relative to no treatment): 4.341 and 2.673 and 4.158
- p21 quantified protein expression (western blot) (p21; time 8 hrs, relative to no treatment): 4.765 and 2.907 and 5.628
- IC50 (line fit, sigmoidal 4PL) of p21 expression versus time (p21; time course 0-8 hrs, X axis is time): 3.071
- Bottom (line fit, sigmoidal 4PL) of p21 expression versus time (p21; [3]): 0.988
- Top (line fit, sigmoidal 4PL) of p21 expression versus time (p21; [3]): 4.463
- Plasma stability ([1]; mouse): > 10 h
- fraction unbound at 4 h, 10 µM ([2]; mouse, plasma): 0.038

SMILES: O=C1CCC(N2Cc3c(CNC(=O)c4ccc(F)cc4)cccc3C2=O)C(=O)N1 (stereo not shown) [SJ7095]
- p21 protein levels (p21; MOLM-13, increasing concentrations, 4 h): dose-dependent upregulation of p21

SMILES: O=C1CCC(N2Cc3cc(Nc4noc5ccccc45)ccc3C2=O)C(=O)N1 (stereo not shown) [SJ001043149-1]
- Calculated Concentration ([1]; mouse plasma, time point 3h): 89.527 and 94.878 and 96.383
- Calculated Concentration ([1]; mouse plasma, time point 24h): 48.667 and 48.995 and 51.103
- Calculated Concentration ([1]; mouse plasma, time point 48h): 26.458 and 25.987 and 26.969
- Ke [1, 4]: 0.028
- t(1/2) [1, 4]: 24.7479
- AVG %Bound ([2]; mouse plasma, average of 3 replicates): 96.2%
- %Bound [2, 5]: 96.641% and 95.489% and 96.3948%
- %Free [2, 5]: 3.359% and 4.511% and 3.605%
